Laboratory results reported in patent EP1944295A1, “Non-racemic mixtures of (R)-N-piperidinyl-5-(4-chlorophenyl)1-(2,4-dichlorophenyl)-4,5-dihydro-1H-pyrazole-3-carboxamide and (S)-N-piperidinyl-5-(4-chlorophenyl)-1-(2,4-dichlorophenyl)-4,5-dihydro-1H-pyrazole-3-carboxamide” (Laboratorios del Dr. Esteve S.A., priority 2007, dated 2008).
Like-named read-outs stand apart in the source and are kept apart here.

Columns and labels:
rat CB1 receptors = molecular target: T1, rat CB1 receptors (Rattus norvegicus, UniProt P20272); experiment: Binding affinity to CB1 receptor, competitive binding with [3H]-CP 55,940 in rat cerebellum membranes
T1 construct: cerebella from male Wistar rats (250-300g) were carefully dissected on ice and homogenates were prepared; from tissue; host or cells: rat cerebellum membranes (male Wistar rats)
T1 sequence (P20272 whole entry): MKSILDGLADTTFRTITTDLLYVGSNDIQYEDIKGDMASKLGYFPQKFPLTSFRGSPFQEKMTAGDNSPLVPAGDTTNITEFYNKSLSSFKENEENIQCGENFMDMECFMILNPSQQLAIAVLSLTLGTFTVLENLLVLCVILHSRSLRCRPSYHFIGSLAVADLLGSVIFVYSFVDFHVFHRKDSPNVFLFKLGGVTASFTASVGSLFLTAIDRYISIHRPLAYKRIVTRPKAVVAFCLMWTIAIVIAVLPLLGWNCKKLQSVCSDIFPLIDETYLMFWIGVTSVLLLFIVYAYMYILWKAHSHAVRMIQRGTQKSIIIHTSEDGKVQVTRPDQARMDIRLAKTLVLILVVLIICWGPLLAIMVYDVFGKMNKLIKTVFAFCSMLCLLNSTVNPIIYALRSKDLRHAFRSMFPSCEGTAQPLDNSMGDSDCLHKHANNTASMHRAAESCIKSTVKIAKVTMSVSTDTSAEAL
Experimental: Binding affinity to CB1 receptor was evaluated according to the method of Govaerts et al (2004) with the following modifications. Briefly, cerebella from male Wistar rats (250-300g) were carefully dissected on ice and homogenates were prepared in cold 50 mM Tris-HCl, 5 mM MgCl2, 1 mM EDTA, 0.25 M sucrose, pH 7.4 with a Potter-Heljheim homogeniser and the suspension was centrifuged at 1,000 x g for 5 minutes. The supernatants were collected and centrifuged at 50,000 x g for 15 min. The resulting pellets were resuspended in Tris-HCl buffer without sucrose, homogenized and incubated for 15 min at 37°C in an orbital shaker bath and centrifuged again at 50,000 x g for 15 min. Pellets were weighed, resuspended in Tris-HCl buffer without sucrose, homogenized with an Ultraturrax homogeniser at 13,500 rpm for 3 x 5 seconds and aliquoted in 0.9 ml volumes in Eppendorf tubes. Aliquots were centrifuged at 20,800 x g for 5 minutes, supernatants discarded and pellets were frozen at -80°C until use. Total protein concentration was determined using a Bio-Rad commercial assay base on the Lowry method. Competitive binding experiments were performed in presence of 1 nM [^3H]-CP 55,940 in siliconized glass tubes containing 100 µg protein/tube resuspended in 1 ml final volume of 50 mM Tris-HCl, 5 mM MgCl2, 1 mM EDTA, 0.5% (w/v) bovine serum albumin, pH 7.4. Competitors were present at various concentrations and the non-specific binding was determined in the presence of 10 µM HU-210. After 1 hour incubation at 30°C, the suspension was rapidly filtered through 0.5% PEI pre-treated GF/B fiber filters on a 96-well harvester and washed 3 times with 3ml ice-cold binding buffer without bovine serum albumin. Radioactivity on filters was measured with Wallac Winspectral 1414 counter by liquid scintillation in 6 ml Ecoscint H (National Diagnostics, U.K.). Assays were made in triplicate.
Binding data were analyzed by non-linear regression with the software GraphPad Prism Version 3.03.

[1] = Feeding study: body weight of obese rats with access to highly palatable cafeteria diet; assay type: in vivo, female Wistar rats; conditions: after 28 days of treatment, dietary-induced obese rats
Experimental: (§1) The experiment was performed on female Wistar rats (originally in the weight range 250-300 g). The rats were housed in pairs in polypropylene cages with solid floors and sawdust bedding at a temperature of 21±4°C and 55±20% humidity. Animals were maintained on a reverse phase light-dark cycle (lights off for 8 h from 09.30-17.30 h) during which time the room was illuminated by red light. Animals had free access to powdered high fat diet (VRF1 plus 20% lard), ground chocolate, ground peanuts and tap water at all times. The three different diets were contained in separate glass feeding jars with aluminum lids with a 3-4 cm hole cut in it to allow access to the food. Animals were housed in pairs for twelve weeks for the induction of obesity. Animals were then housed singly in polypropylene cages with wire grid floors to enable the food intake of each rat to be recorded. Polypropylene trays with cage pads were placed beneath each cage to detect any food spillage. Animals were accustomed to these new conditions (individual housing and the wire-grid floor cages) for at least 14 days before the start of the baseline readings.
(§2) Approximately a week before the start of the study, animals were weighed (to the nearest 0.1 g using an electronic top-pan balance) and allocated into […], each containing 9-10 animals. Following a 7 day baseline run-in period, during which the animals were dosed by the appropriate route (eg orally) once a day with vehicle (0.5% hydroxy-propyl-methylcellulose [HPMC]; 1 ml/kg) or the test drug, ie COMPOUND A (10 and 30 mg/kg po) and COMPOUND B (10 and 30 mg/kg po) once daily for 28 days.
Food intake and body weight were measured once daily. Variations in body weight and energy levels of the different types of food were accounted for by expressing the food intake results in terms of kJ/kg rat weight.
Statistical comparisons between the body weights and daily food intakes of the different treatment groups have been made by analysis of covariance followed by Dunnett's test to compare each treatment group with the vehicle-treated controls. For the body weight data (body weights each day), the weights of the animals on Day 1 (ie immediately before the first drug treatment) were used as the covariate. Thus, means were adjusted for differences in body weight between the groups on Day 1 and standard errors of the mean (SEM) were calculated from the residuals of the statistical model. All mean body weight values on Day 1 are identical (and SEM are therefore zero) because the analysis of covariance adjusts them all to equal the 'grand mean' of the values of this day.

[2] = Plasma glycerol and triacylglycerol assay; assay type: in vivo, female Wistar rats; conditions: obese rats, vs vehicle; for reduction of plasma glycerol levels / reduction of plasma triacylglycerol concentrations: 30 mg/kg po once daily for 28 days
Experimental: as §1, §2
Terminal blood samples via cardiac puncture were taken from the animals immediately after death into Sarstedt 4.5 ml lithium-heparin tubes (Cat No. 32.331). Tubes were then centrifuged at 1,500 g for 5 minutes at 4°C and the plasma removed and immediately frozen on dry ice (as 3 aliquots per sample in sealed Eppendorf tubes). Plasma samples were stored at -75°C until required for analysis. All determinations were performed on plasma samples that had been thawed only once.
Plasma triacylglycerol was determined by modification of a discrete assay kit (Sigma Triglyceride determination kit, Cat No. TR0100) to a 96-well format. The kit actually determines liberated glycerol following enzymic hydrolysis of triacylglycerol to free fatty acids and glycerol (1 mole glycerol per mole of triacylglycerol). For this reason, correction for the glycerol concentration originally present in the plasma is required. Plasma samples were, therefore, assayed in the absence (free plasma glycerol) or presence (total triacylglycerol) of lipoprotein lipase. Subtraction of free glycerol from total triacylglycerol concentration then derives the true triacylglycerol concentration.
A 2.5 mg/ml triolein equivalent glycerol standard was obtained from Sigma. The supplied Sigma mM conversion factor for this batch was 1.13 (ie 2.83 mM glycerol). A 10 mg/ml glycerol stock solution was prepared in saline and then diluted in saline to create a series of standard concentrations from 0.218 to 4.34 mM. Standards and plasma samples (undiluted) were pipetted into the 96-well plates as 10 µl additions in duplicate. Assay plates and reagents were preheated at 37°C and the reaction started by adding 200 µl of either the glycerol or total triacylglycerol reagent (reconstituted as per manufacturer's protocol) followed by incubation at 37°C for 5 minutes after which optical density at 540 nm was determined using a Molecular Devices VERSAmax tunable microplate reader. Optical density readings were then transferred to GraphPad Prism and unknown values extrapolated from a linear regression fit to the standard curve. The assay was linear up to the highest glycerol standard employed (4.34 mM). Subtraction of the glycerol concentration in the plasma samples from the total triacylglycerol concentration derived the true triacylglycerol concentration.

Herg channel = Herg channel (Homo sapiens, UniProt Q12809); experiment: Herg channel affinity (statement only, no method); assay type: binding; conditions: low risk of prolongation of the QT-interval expected
Chain of Herg channel (Q12809 whole entry): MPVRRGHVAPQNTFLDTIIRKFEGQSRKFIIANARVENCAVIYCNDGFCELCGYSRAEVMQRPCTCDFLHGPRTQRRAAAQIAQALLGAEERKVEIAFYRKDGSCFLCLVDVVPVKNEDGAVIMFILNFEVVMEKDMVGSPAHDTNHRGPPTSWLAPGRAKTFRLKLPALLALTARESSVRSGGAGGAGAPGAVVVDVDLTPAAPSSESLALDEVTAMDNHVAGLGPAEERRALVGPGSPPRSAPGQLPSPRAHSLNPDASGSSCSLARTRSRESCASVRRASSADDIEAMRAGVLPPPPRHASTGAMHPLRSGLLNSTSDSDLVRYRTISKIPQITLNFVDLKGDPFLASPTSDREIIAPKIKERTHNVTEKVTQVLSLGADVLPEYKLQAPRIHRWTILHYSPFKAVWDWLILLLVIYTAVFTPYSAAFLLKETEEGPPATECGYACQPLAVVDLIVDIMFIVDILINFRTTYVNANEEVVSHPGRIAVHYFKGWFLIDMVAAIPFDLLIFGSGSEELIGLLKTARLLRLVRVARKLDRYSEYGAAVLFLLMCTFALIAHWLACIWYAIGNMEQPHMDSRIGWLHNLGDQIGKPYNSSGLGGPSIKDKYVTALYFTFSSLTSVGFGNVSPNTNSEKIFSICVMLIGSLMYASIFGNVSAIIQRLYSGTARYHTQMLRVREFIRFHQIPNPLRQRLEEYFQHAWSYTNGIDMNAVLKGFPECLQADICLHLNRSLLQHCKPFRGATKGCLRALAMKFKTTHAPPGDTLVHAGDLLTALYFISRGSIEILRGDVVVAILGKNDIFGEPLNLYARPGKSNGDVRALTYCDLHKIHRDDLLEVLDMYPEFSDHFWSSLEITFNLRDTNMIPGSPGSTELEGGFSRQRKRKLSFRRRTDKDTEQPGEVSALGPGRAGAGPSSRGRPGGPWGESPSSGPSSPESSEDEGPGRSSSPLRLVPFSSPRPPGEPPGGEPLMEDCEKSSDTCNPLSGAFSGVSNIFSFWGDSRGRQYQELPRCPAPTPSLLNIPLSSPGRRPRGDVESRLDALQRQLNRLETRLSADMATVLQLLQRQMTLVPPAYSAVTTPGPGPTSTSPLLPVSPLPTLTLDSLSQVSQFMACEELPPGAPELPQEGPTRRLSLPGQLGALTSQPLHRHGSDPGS

[3] = Determination of carcass fat content (Soxhlet); assay type: in vivo, female Wistar rats; conditions: obese rats, g per rat
Experimental: as §1, with “Polypropylene trays with cage pads were placed beneath each cage to detect any food spillage.” left out, “readings. […]” for “readings.”
Percentage fat in the freeze-dried sample was calculated as follows: % fat = [100×(final cup weight-initial cup weight)]/sample weight [formula]
Percentage fat in the original sample was calculated using the % water as follows: % fat in original sample = % fat × [(100-% water)/100] […]

Plasma leptin assay = assay type: in vivo, female Wistar rats; conditions: obese rats
Experimental: as §1, with “Polypropylene trays with cage pads were placed beneath each cage to detect any food spillage.” left out, “readings. […]” for “readings.”
Plasma leptin concentration was determined using Assay Designs rat leptin enzyme immunometric assay kits (Cat No. 900-015) according to the manufacturer's regular protocol. […] Optical density at 450 nm was determined using a Molecular Devices VERSAmax tunable microplate reader and readings transferred to GraphPad Prism. […]

Plasma NEFA assay = assay type: in vivo, female Wistar rats; conditions: 30 mg/kg po once daily for 28 days, obese rats
Experimental: as §1, with “Animals were housed in pairs for twelve weeks for the induction of obesity.” left out, “Polypropylene trays with cage pads were placed beneath each cage to detect any food spillage.” left out, “readings. […]” for “readings.”
Non-esterified (or free) fatty acids (NEFA) were determined by modification of a commercial clinical analyser assay kit (Wako NEFA C ACS-ACOD method) to a 96-well format. […] After exactly 10 minutes, 150 µl of reagent B was added and the plate incubated for a further 10 minutes after which optical density at 540 nm was determined using a Molecular Devices VERSAmax tunable microplate reader. […]

[4] = 1 nM [3H]-CP 55,940, read-out: IC50
[5] = 10 mg/kg po once daily for 28 days
[6] = 30 mg/kg po once daily for 28 days

Row | Compound | IC50 (rat CB1 receptors; [4]) | IC50 (rat CB1 receptors; 1 nM [3H]-CP 55,940, read-out: pIC50 (converted)) | % reduction of body weight compared to the control group on Day 29 ([1]; 10 mg/kg po once daily) | % reduction of body weight compared to the control group on Day 29 ([1]; 30 mg/kg po once daily) | effect on plasma glycerol levels [2, 5] | effect on plasma triacylglycerol concentrations [2, 5] | reduction of plasma glycerol levels [2] | reduction of plasma triacylglycerol concentrations [2] | Herg channel affinity (Herg channel) | decrease in absolute body fat compared to the vehicle-treated control group [3, 5] | decrease in absolute body fat compared to the vehicle-treated control group [3, 6] | decrease of plasma leptin levels compared to the vehicle-treated control group (Plasma leptin assay; [5]) | decrease of plasma leptin levels compared to the vehicle-treated control group (Plasma leptin assay; [6]) | decrease of plasma NEFA levels compared to the vehicle-treated control group (Plasma NEFA assay)
1 | O=C(NN1CCCCC1)C1=NN(c2ccc(Cl)cc2Cl)[C@@H](c2ccc(Cl)cc2)C1 [Compound A, (R)-N-piperidinyl-5-(4-chlorophenyl)-1-(2,4-dichlorophenyl)-4,5-dihydro-1H-pyrazole-3-carboxamide] | 16.1 nM | 21.9 nM | 12.0% | 19.0% | no significant effect | no significant effect | 33.6% | 42% | relatively weak |  |  |  |  | 
2 | O=C(NN1CCCCC1)C1=NN(c2ccc(Cl)cc2Cl)[C@H](c2ccc(Cl)cc2)C1 [Compound B, (S)-N-piperidinyl-5-(4-chlorophenyl)-1-(2,4-dichlorophenyl)-4,5-dihydro-1H-pyrazole-3-carboxamide] | 813 nM |  | 4.0% | 7.1% |  |  | 38.9% | 52.1% |  | 26.2 g | 11.1 g | 13.7% | 26.2% | 24.4%
